Source: US20240210412A1, “SULFONYL-TRIAZOLE COMPOUNDS USEFUL AS LIGANDS AND INHIBITORS OF PROSTAGLANDIN REDUCTASE 2” (University of Virginia Patent Foundation, priority 2021, published 2024)

What was measured:
Assay in all cases: SILAC LC-MS ABPP
Type in all cases: cell-based
Details in all cases: 25 μM 2 h, live DM93 cells
O60828 = biological target: T1, O60828 (Homo sapiens, UniProt O60828)
T1 construct: endogenous in cells; host or cells: DM93
How it was run: (§1)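 DM93 melanoma cells under SILAC: light treated with DMSO, heavy with SuTEx ligand (25 μM, 2 h, 37 °C) in serum-free medium, then HHS-475 alkyne probe (100 μM, 2 h, 37 °C). Soluble proteomes clicked to desthiobiotin-PEG3-azide by CuAAC, mixed 1:1, trypsinised, avidin-enriched; probe-modified tyrosine peptides quantified by LC-MS/MS.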

P25789 = biological target: T2, P25789 (Homo sapiens, UniProt P25789)
T2 construct: endogenous in cells; host or cells: DM93 (SILAC)
How it was run: as §1

P49792 = biological target: T3, P49792 (Homo sapiens, UniProt P49792)
T3 construct: endogenous in cells; host or cells: DM93 cells (SILAC)
How it was run: as §1

P52597 = biological target: T4, P52597 (Homo sapiens, UniProt P52597)
T4 construct: endogenous in cells; host or cells: DM93 cells (SILAC)
How it was run: as §1

Q14847 = biological target: T5, Q14847 (Homo sapiens, UniProt Q14847)
T5 construct: performing SuTEx compound screening directly in cells; endogenous in cells; host or cells: DM93 cells (SILAC), soluble fraction
How it was run: as §1

Q969T7 = biological target: T6, Q969T7 (Homo sapiens, UniProt Q969T7)
T6 construct: endogenous in cells; host or cells: DM93 cells (SILAC), live-cell treatment
How it was run: as §1

Q9BWD1 = biological target: T7, Q9BWD1 (Homo sapiens, UniProt Q9BWD1)
T7 construct: endogenous in cells; host or cells: DM93 cells (SILAC), treated live; soluble proteome analysed
How it was run: as §1

P19174 = biological target: T8, P19174 (Homo sapiens, UniProt P19174)
T8 construct: endogenous in cells; host or cells: DM93 (SILAC)
How it was run: as §1

P62993 = biological target: T9, P62993 (Homo sapiens, UniProt P62993)
T9 construct: performing SuTEx compound screening directly in cells; endogenous in cells; host or cells: DM93 cells (SILAC)
How it was run: as §1

Q14247 = biological target: T10, Q14247 (Homo sapiens, UniProt Q14247)
T10 construct: performing SuTEx compound screening directly in cells; endogenous in cells; host or cells: DM93 cells (SILAC), soluble fraction
How it was run: as §1

Q9BUJ2 = biological target: T11, Q9BUJ2 (Homo sapiens, UniProt Q9BUJ2)
T11 construct: endogenous in cells; host or cells: DM93 cells (SILAC), treated live; soluble proteome analysed
How it was run: as §1

O95453 = biological target: T12, O95453 (Homo sapiens, UniProt O95453)
T12 construct: endogenous in cells; host or cells: DM93 cells (SILAC)
How it was run: as §1

P20839 = biological target: T13, P20839 (Homo sapiens, UniProt P20839)
T13 construct: endogenous in cells; host or cells: DM93 (SILAC)
How it was run: as §1

Q5T6F2 = biological target: T14, Q5T6F2 (Homo sapiens, UniProt Q5T6F2)
T14 construct: performing SuTEx compound screening directly in cells; endogenous in cells; host or cells: DM93 cells (SILAC), soluble fraction
How it was run: as §1

Q9Y2H2 = biological target: T15, Q9Y2H2 (Homo sapiens, UniProt Q9Y2H2)
T15 construct: endogenous in cells; host or cells: DM93 cells (SILAC)
How it was run: as §1

P51665 = biological target: T16, P51665 (Homo sapiens, UniProt P51665)
T16 construct: endogenous in cells; host or cells: DM93 cells (SILAC)
How it was run: as §1

Q92734 = biological target: T17, Q92734 (Homo sapiens, UniProt Q92734)
T17 construct: endogenous in cells; host or cells: DM93 cells (SILAC), live-cell treatment
How it was run: as §1

Q9H788 = biological target: T18, Q9H788 (Homo sapiens, UniProt Q9H788)
T18 construct: endogenous in cells; host or cells: DM93 cells (SILAC), treated live; soluble proteome analysed
How it was run: as §1

T14 sequence (Q5T6F2 whole entry): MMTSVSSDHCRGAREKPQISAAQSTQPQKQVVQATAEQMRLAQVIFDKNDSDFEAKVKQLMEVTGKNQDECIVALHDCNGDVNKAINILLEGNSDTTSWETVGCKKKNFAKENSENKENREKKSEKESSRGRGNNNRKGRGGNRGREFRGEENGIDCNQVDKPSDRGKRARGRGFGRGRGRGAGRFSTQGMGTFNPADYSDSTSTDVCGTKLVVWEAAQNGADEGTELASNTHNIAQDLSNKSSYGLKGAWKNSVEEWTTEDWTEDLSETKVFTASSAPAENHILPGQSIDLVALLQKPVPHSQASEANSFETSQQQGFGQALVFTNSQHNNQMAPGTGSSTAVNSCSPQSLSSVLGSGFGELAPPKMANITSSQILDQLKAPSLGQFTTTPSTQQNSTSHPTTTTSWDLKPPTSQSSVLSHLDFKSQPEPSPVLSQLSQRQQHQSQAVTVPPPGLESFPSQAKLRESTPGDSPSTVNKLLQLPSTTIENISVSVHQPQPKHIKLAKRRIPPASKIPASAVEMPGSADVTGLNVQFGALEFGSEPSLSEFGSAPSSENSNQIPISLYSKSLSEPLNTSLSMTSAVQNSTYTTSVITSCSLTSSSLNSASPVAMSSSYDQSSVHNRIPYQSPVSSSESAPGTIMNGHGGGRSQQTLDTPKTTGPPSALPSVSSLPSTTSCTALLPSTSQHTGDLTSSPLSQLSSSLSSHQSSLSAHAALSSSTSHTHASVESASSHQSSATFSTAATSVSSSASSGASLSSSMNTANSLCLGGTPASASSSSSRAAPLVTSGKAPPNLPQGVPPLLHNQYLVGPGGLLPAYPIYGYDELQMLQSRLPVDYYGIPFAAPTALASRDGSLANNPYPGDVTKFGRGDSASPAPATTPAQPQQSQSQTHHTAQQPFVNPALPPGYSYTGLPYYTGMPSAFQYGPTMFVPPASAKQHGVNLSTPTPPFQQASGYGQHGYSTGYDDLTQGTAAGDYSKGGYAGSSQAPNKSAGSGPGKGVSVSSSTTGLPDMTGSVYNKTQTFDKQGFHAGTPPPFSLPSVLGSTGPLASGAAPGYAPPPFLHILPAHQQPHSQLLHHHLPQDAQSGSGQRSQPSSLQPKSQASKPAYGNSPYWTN
T4 sequence (P52597 whole entry): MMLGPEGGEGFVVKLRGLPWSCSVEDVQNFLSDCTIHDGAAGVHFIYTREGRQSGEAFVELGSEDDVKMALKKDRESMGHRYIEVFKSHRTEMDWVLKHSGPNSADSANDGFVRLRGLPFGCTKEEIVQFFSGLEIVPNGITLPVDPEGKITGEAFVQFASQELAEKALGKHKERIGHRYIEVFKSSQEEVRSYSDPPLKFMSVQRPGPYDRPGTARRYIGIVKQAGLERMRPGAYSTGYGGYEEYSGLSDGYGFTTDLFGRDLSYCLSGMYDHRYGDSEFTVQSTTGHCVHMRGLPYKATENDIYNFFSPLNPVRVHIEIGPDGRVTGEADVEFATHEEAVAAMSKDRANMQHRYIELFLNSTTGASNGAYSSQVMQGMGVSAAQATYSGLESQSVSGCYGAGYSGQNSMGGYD
T13 sequence (P20839 2-514 limits assumed): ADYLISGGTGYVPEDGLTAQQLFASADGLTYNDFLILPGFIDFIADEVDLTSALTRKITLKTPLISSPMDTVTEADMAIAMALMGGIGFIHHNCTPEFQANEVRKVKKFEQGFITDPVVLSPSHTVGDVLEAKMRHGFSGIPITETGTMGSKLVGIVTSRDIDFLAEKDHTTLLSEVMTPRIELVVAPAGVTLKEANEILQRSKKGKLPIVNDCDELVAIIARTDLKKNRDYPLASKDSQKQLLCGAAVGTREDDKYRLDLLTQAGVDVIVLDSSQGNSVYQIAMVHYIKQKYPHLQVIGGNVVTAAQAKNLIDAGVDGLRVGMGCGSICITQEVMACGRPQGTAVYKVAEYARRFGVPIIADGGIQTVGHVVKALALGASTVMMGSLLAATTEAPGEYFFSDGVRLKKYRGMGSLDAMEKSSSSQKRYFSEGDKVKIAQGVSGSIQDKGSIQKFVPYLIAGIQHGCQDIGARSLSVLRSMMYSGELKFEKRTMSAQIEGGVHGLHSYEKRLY
T9 sequence (P62993 whole entry): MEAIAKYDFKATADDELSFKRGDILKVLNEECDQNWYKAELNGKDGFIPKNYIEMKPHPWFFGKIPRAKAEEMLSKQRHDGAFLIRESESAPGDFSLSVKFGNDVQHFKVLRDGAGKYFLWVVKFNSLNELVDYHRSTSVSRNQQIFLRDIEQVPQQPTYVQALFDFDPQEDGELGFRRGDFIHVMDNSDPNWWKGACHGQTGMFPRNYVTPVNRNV
T12 sequence (O95453 whole entry): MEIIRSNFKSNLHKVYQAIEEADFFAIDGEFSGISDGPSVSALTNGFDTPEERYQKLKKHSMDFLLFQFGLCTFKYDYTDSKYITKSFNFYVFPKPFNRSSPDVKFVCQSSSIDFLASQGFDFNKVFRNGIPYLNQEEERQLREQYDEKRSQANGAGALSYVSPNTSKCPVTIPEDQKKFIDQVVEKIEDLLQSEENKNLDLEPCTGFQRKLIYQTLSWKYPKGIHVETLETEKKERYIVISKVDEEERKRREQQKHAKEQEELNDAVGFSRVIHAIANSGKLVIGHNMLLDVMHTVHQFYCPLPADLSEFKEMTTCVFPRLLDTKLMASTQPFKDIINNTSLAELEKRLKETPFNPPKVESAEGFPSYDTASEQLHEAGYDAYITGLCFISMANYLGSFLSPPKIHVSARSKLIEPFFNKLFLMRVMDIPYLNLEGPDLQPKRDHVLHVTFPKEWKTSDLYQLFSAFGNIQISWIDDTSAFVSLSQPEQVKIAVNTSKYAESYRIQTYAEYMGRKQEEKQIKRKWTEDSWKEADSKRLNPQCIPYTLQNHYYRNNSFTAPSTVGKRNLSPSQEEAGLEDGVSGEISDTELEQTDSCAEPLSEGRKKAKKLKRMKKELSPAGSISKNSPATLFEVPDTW
T18 sequence (Q9H788 whole entry): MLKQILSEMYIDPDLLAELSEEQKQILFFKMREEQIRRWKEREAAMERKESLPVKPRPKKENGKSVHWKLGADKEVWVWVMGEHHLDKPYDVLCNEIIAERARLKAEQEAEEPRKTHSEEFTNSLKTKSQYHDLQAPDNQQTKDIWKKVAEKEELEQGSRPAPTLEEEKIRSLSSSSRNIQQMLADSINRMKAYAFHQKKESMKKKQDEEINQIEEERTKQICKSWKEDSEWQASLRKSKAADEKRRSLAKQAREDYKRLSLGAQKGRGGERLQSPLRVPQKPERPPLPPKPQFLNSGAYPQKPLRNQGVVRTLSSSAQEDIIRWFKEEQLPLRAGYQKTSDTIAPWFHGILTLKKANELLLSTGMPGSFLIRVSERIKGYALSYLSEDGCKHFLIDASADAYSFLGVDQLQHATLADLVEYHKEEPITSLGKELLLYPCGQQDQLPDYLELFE
T1 sequence (O60828 whole entry): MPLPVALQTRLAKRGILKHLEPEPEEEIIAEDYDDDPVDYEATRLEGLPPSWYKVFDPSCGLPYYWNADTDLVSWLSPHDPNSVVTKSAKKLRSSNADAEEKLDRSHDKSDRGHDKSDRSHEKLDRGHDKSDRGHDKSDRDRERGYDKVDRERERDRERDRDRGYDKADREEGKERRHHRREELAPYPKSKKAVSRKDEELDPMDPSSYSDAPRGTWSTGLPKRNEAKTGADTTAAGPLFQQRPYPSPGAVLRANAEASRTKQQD
T6 sequence (Q969T7 whole entry): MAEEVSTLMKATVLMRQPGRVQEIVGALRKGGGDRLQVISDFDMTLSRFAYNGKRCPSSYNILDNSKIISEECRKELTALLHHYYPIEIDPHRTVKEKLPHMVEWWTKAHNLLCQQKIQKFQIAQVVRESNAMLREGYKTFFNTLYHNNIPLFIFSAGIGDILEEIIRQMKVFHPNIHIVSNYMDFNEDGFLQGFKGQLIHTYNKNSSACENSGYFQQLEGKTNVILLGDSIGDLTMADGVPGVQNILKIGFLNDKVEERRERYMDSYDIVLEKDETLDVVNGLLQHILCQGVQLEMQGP
T11 sequence (Q9BUJ2 whole entry): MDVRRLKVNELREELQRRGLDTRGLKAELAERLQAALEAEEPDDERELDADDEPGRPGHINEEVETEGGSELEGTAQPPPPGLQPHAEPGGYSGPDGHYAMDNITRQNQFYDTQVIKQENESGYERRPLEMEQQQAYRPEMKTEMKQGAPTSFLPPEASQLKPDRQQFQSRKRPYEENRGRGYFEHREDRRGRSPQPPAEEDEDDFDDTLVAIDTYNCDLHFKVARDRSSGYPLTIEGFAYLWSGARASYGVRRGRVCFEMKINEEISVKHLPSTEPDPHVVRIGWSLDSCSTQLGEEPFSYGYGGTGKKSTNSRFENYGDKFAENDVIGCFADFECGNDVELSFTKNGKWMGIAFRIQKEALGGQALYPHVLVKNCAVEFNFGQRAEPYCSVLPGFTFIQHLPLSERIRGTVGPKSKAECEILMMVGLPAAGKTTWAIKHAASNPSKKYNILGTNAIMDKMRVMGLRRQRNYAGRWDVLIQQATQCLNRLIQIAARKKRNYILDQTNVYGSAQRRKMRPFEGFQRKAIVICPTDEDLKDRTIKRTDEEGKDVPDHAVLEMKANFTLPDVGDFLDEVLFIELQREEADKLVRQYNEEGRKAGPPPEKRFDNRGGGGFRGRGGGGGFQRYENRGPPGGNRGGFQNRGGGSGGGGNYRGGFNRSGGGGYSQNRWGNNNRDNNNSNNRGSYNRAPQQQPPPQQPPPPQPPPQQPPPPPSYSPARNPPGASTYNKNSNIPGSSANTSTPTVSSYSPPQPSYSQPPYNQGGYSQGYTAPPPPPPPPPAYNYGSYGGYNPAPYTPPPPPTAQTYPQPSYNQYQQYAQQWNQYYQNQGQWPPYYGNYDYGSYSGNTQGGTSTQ

Compound: O=C(NC1CC1)c1ccc(S(=O)(=O)n2cncn2)cc1 [HHS-0101, 4-((1H-1,2,4-triazol-1-yl)sulfonyl)-N-cyclopropylbenzamide]
- liganded tyrosine site 209 (O60828): HHS0101.Y|HHS0401.Y (tyrosine sites that showed >80% reductions (SR >5) in probe labeling in cells treated with compounds (liganded sites))
- liganded tyrosine site 19 (P25789): HHS0101.Y (tyrosine sites that showed >80% reductions (SR >5) in probe labeling in cells treated with compounds (liganded sites))
- liganded tyrosine site 66 (P25789): HHS0101.Y|HHS0201.Y|HHS0301.Y (tyrosine sites that showed >80% reductions (SR >5) in probe labeling in cells treated with compounds (liganded sites))
- liganded tyrosine site 1983 (P49792): HHS0101.Y (tyrosine sites that showed >80% reductions (SR >5) in probe labeling in cells treated with compounds (liganded sites))
- liganded tyrosine site 210 (P52597): HHS0101.Y|HHS0201.Y|HHS0701.Y (tyrosine sites that showed >80% reductions (SR >5) in probe labeling in cells treated with compounds (liganded sites))
- liganded tyrosine site 298 (P52597): HHS0101.Y|HHS0701.Y (tyrosine sites that showed >80% reductions (SR >5) in probe labeling in cells treated with compounds (liganded sites))
- liganded tyrosine site 57 (Q14847): HHS0101.Y (tyrosine sites that showed >80% reductions (SR >5) in probe labeling in cells treated with compounds (liganded sites))
- liganded tyrosine site 85 (Q969T7): HHS0101.Y (tyrosine sites that showed >80% reductions (SR >5) in probe labeling in cells treated with compounds (liganded sites))
- liganded tyrosine site 237 (Q9BWD1): HHS0101.Y|HHS0201.Y|HHS0301.Y|HHS0401.Y (tyrosine sites that showed >80% reductions (SR >5) in probe labeling in cells treated with compounds (liganded sites))

Compound: O=C(NCC1CC1)c1ccc(S(=O)(=O)n2cncn2)cc1 [HHS-0201, 4-((1H-1,2,4-triazol-1-yl)sulfonyl)-N-(cyclopropylmethyl)benzamide]
- liganded tyrosine site 472 (P19174): HHS0201.Y (tyrosine sites that showed >80% reductions (SR >5) in probe labeling in cells treated with compounds (liganded sites))
- liganded tyrosine site 160 (P62993): HHS0201.Y (tyrosine sites that showed >80% reductions (SR >5) in probe labeling in cells treated with compounds (liganded sites))

Compound: O=C(NC1CCCCC1)c1ccc(S(=O)(=O)n2cncn2)cc1 [HHS-0301, 4-((1H-1,2,4-triazol-1-yl)sulfonyl)-N-cyclohexylbenzamide]
- liganded tyrosine site 154 (Q14247): HHS0301.Y|HHS0401.Y (tyrosine sites that showed >80% reductions (SR >5) in probe labeling in cells treated with compounds (liganded sites))
- liganded tyrosine site 111 (Q9BUJ2): HHS0301.Y|HHS0701.Y (tyrosine sites that showed >80% reductions (SR >5) in probe labeling in cells treated with compounds (liganded sites))

Compound: O=C(NCc1ccccc1)c1ccc(S(=O)(=O)n2cncn2)cc1 [HHS-0401, 4-((1H-1,2,4-triazol-1-yl)sulfonyl)-N-benzylbenzamide]
- liganded tyrosine site 161 (O95453): HHS0401.Y (tyrosine sites that showed >80% reductions (SR >5) in probe labeling in cells treated with compounds (liganded sites))
- liganded tyrosine site 233 (P20839): HHS0401.Y (tyrosine sites that showed >80% reductions (SR >5) in probe labeling in cells treated with compounds (liganded sites))
- liganded tyrosine site 823 (Q5T6F2): HHS0401.Y (tyrosine sites that showed >80% reductions (SR >5) in probe labeling in cells treated with compounds (liganded sites))
- liganded tyrosine site 825 (Q5T6F2): HHS0401.Y (tyrosine sites that showed >80% reductions (SR >5) in probe labeling in cells treated with compounds (liganded sites))
- liganded tyrosine site 887 (Q9Y2H2): HHS0401.Y|HHS0701.Y (tyrosine sites that showed >80% reductions (SR >5) in probe labeling in cells treated with compounds (liganded sites))

Compound: O=C(c1ccc(S(=O)(=O)n2cncn2)cc1)N1CCC(c2ccccc2)CC1 [HHS-0701, (4-((1H-1,2,4-triazol-1-yl)sulfonyl)phenyl)(4-phenylpiperidin-1-yl)methanone]
- liganded tyrosine site 74 (P51665): HHS0701.Y (tyrosine sites that showed >80% reductions (SR >5) in probe labeling in cells treated with compounds (liganded sites))
- liganded tyrosine site 392 (Q92734): HHS0701.Y (tyrosine sites that showed >80% reductions (SR >5) in probe labeling in cells treated with compounds (liganded sites))
- liganded tyrosine site 194 (Q9H788): HHS0701.Y (tyrosine sites that showed >80% reductions (SR >5) in probe labeling in cells treated with compounds (liganded sites))
